This note sets out measurements from article PMC6513986, “Molecular basis for heat desensitization of TRPV1 ion channels” (Nature Communications, 2019).

For one data set, the target named is platypus TRPV1 (pV1) (Ornithorhynchus anatinus, UniProt F7A7B4). As to the kind of experiment: Agonist activation, patch clamp, HEK293T. The format is cell-based. To be noted: whole-cell, 3 mM. For orientation: The patch-clamp technique gives a direct electrical read-out from membranes.
Another data set has as its target mV1_241 (ANAP) (Mus musculus, UniProt Q704Y3, K241X). As to the kind of experiment: Agonist activation of ANAP-incorporated channel, patch clamp. The format is cell-based.
The target of another data set is pV1_241 (ANAP) (Ornithorhynchus anatinus, UniProt F7A7B4). The data set is described as above. The format is cell-based, platypus.
A further data set concerns the target mV1_579 (ANAP) (Mus musculus, UniProt Q704Y3, C579X). The description is as above. In kind it is cell-based.
In the next data set the target is mV1_630 (ANAP) (Mus musculus, UniProt Q704Y3, S630X). The data set is described as above. In kind it is cell-based.
The target of another data set is mV1_648 (ANAP) (Mus musculus, UniProt Q704Y3, L648X). Described as above. The format is cell-based.
In a further data set the target is mV1_651 (ANAP) (Mus musculus, UniProt Q704Y3, T651X). The description is as above. In kind it is cell-based.
The target in a further data set is mV1_654 (ANAP) (Mus musculus, UniProt Q704Y3, Y654X). Described as above. The format is cell-based.
For another data set, the target named is mV1_685 (ANAP) (Mus musculus, UniProt Q704Y3, E685X). The description is as above. In kind it is cell-based.
Another data set has as its target pV1_643 (ANAP) (Ornithorhynchus anatinus, UniProt F7A7B4, S634X).
Data set [1] is described as follows: Emission peak of free ANAP at different temperatures. To be noted: n=3. In kind it is physicochemical. From the text: ANAP fluorescence was excited by the Ar laser with a 375/28 excitation filter, T400lp dichroic mirror, and 435LP emission filter on an inverted fluorescence microscope (Nikon TE2000-U) using a ×40 oil-immersion objective (numerical aperture (NA) 1.3). Emission spectrum of ANAP was imaged with an Acton SpectraPro 2150i spectrograph in conjunction with an Evolve 512 EMCCD camera. The emission peak value was found by fitting the spectrum with a skewed Gauss distribution.

With `NCCOB(c1ccccc1)c1ccccc1` [2APB, 2-aminoethoxydiphenyl borate], the entries for the “activation of pV1 by 2-APB” value on platypus TRPV1 (pV1) (listed as 2-APB) and at platypus TRPV1 (pV1) (listed as 2-aminoethoxydiphenyl borate) were “currents elicited” and “directly activated”, respectively. Further, the 2APB activation result on mV1_241 (ANAP), on pV1_241 (ANAP), on mV1_579 (ANAP), on mV1_630 (ANAP), at mV1_648 (ANAP) and at mV1_651 (ANAP) was “Yes” throughout. Further, the 2APB activation entry at mV1_654 (ANAP), at mV1_685 (ANAP) and on pV1_643 (ANAP) was “Yes” each time.

Consider `CC(=O)c1ccc2cc(NCC(N)C(=O)O)ccc2c1` (stereo not drawn) [free ANAP, 3-(6-acetylnaphthalen-2-ylamino)-2-aminopropanoic acid], for which, in data set [1], the “change of emission spectrum during heating” value is on record as “no change”.
